Calls of active or inactive are those of the source. No rule for the calls is given here.
Test system: rodent carcinogenicity bioassays, tumor incidence
Assay: CCRIS carcinogenicity studies
Outline: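 NCI-built, expert-reviewed records of carcinogenicity and related test outcomes (mutagenicity, tumor promotion/inhibition) compiled from published and report sources, historical span 1985-2011, not updated.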

`C/C=C/c1ccc2c(c1)OCO2` was tested, and the carcinogen call (Species: MOUSE, Strain/Sex: B6C3F1/MALE,FEMALE, Route: GAVAGE/ORAL, Dose: 215 MG/KG FROM D 6= 28 OF LIFE THEN 517 MG/KG IN DIET, Tumor Site: Type of Lesion: LIVER) was “active; positive” and the carcinogen call (Species: RAT, Route: ORAL, Dose: 1000, 2500, 5000, 10000 MG/KG IN DIET FOR 2 YR, Dose: 1000, 2500, 5000, 10000 MG/KG IN DIET FOR 2 YR, Tumor Site: Type of Lesion: LIVER: HEPATOCELLULAR ADENOMA, CARCINOMA) was “active; positive”.

`CN(C)c1ccc(C(=C2C=CC(=[N+](C)C)C=C2)c2ccccc2)cc1` was tested, and the carcinogen call (Species: MOUSE, Strain/Sex: B6C3F1/FEMALE, Route: ORAL (DIET), Dose: 0, 100, 225, 450 PPM IN DIET FOR 2 YRS, Dose: 0, 100, 225, 450 PPM IN DIET FOR 2 YRS) was “inactive; negative” and the carcinogen call (Species: RAT, Strain/Sex: F344/N/FEMALE, Route: ORAL (DIET), Dose: 0, 100, 300, 600 PPM IN DIET FOR 2 YRS, Dose: 0, 100, 300, 600 PPM IN DIET FOR 2 YRS, Tumor Site: Type of Lesion: THYROID: FOLLICULAR CELL ADENOMA OR CARCINOMA, LIVER: HEPATOCELLULAR ADENOMA, MAMMARY GLAND: CARCINOMA, Tumor Site: Type of Lesion: THYROID: FOLLICULAR CELL ADENOMA OR CARCINOMA, LIVER: HEPATOCELLULAR ADENOMA, MAMMARY GLAND: CARCINOMA) was “equivocal; none of the tumor incidences reached statistical significance; in som”.

With `O=C1C(c2[nH]c3ccc(S(=O)(=O)O)cc3c2O)=Nc2ccc(S(=O)(=O)O)cc21` the carcinogen call (Species: DOG, Strain/Sex: BEAGLE/MALE, FEMALE, Route: ORAL, Dose: 0, 1, 2% IN DIET FOR 2 YR, Dose: 0, 1, 2% IN DIET FOR 2 YR) was “inactive; negative”, the carcinogen call (Species: MOUSE, Strain/Sex: C3H AND C57/MALE, FEMALE, Route: SUBCUTANEOUS, Dose: 0, 2.5 MG AS A 1% AQUEOUS SOLUTION 1/WK FOR 2 YR) was “inactive; negative” and the carcinogen call (Species: MOUSE, Strain/Sex: CD-1/FEMALE, Route: ORAL, Dose: 0, 0.5, 1.5, 5% IN DIET FOR 23 MO (STUDY DURATION: 24 MO), Dose: 0, 0.5, 1.5, 5% IN DIET FOR 23 MO (STUDY DURATION: 24 MO)) was “inactive; negative”. For the same compound, the carcinogen call (Species: MOUSE, Strain/Sex: CD-1/MALE, Route: ORAL, Dose: 0, 0.5, 1.5, 5% IN DIET FOR 22 MO (STUDY DURATION: 24 MO), Dose: 0, 0.5, 1.5, 5% IN DIET FOR 22 MO (STUDY DURATION: 24 MO)) was “inactive; negative”, the carcinogen call (Species: RAT, Strain/Sex: OSBORNE-MENDEL/MALE, FEMALE, Route: ORAL, Dose: 0, 0.5, 1.0, 2.0, 5.0% IN DIET FOR 2 YR, Dose: 0, 0.5, 1.0, 2.0, 5.0% IN DIET FOR 2 YR) was “inactive; negative” and the carcinogen call (Species: RAT, Strain/Sex: OSBORNE-MENDEL/MALE, FEMALE, Route: SUBCUTANEOUS, Dose: 0, 20 MG AS A 2% AQUEOUS SOLUTION 1/WK FOR 2 YR, Tumor Site: Type of Lesion: INJECTION SITE: FIBROSARCOMA) was “active; positive”. For the same compound, the carcinogen call (Species: RAT, Strain/Sex: STRAIN-CD/FEMALE, Route: ORAL, Dose: 0, 0.5, 1, 2% IN DIET FOR 30 MO TO ANIMALS ALSO EXPOSED IN UTERO THROUGH THE SAME DOSES ADMINISTERED TO PARENTS BEGINNIN, Dose: 0, 0.5, 1, 2% IN DIET FOR 30 MO TO ANIMALS ALSO EXPOSED IN UTERO THROUGH THE SAME DOSES ADMINISTERED TO PARENTS BEGINNIN) was “inactive; negative” and the carcinogen call (Species: RAT, Strain/Sex: STRAIN-CD/MALE, Route: ORAL, Dose: 0, 0.5, 1, 2% IN DIET FOR 29 MO TO ANIMALS ALSO EXPOSED IN UTERO THROUGH THE SAME DOSES ADMINISTERED TO PARENTS BEGINNIN, Dose: 0, 0.5, 1, 2% IN DIET FOR 29 MO TO ANIMALS ALSO EXPOSED IN UTERO THROUGH THE SAME DOSES ADMINISTERED TO PARENTS BEGINNIN) was “inactive; negative”.

With `c1ccc2cc3c(ccc4ccccc43)cc2c1` the carcinogen call (Species: MOUSE, Route: DERMAL, Tumor Site: Type of Lesion: INTEGUMENTARY SYSTEM (SKIN)) was “active; positive”, the carcinogen call (Species: MOUSE, Route: IMPLANT, Tumor Site: Type of Lesion: URINARY BLADDER) was “active; positive” and the carcinogen call (Species: MOUSE, Route: ORAL, Tumor Site: Type of Lesion: LIVER, LUNG) was “active; positive”. The carcinogen call (Species: MOUSE, Route: SUBCUTANEOUS, Tumor Site: Type of Lesion: INJECTION SITE) was “active; positive”, the carcinogen call (Species: MOUSE, Strain/Sex: B6C3F1/MALE, Route: INTRAPERITONEAL, Dose: 0, 1600 NMOL IN 35 µL DMSO TOTAL DOSE AT 1 D (1/7 TOTAL DOSE), 8 D (2/7 TOTAL DOSE), AND 15 D (4/7 TOTAL DOSE) OF AGE (S, Tumor Site: Type of Lesion: LIVER: ADENOMA, CARCINOMA) was “active; positive” and the carcinogen call (Species: MOUSE, Strain/Sex: SWISS/MALE,FEMALE, Route: INTRAPERITONEAL, Dose: 0, 2800 NMOL TOTAL DOSE, D 1, 8, AND 15 OF LIFE, Dose: 0, 2800 NMOL TOTAL DOSE, D 1, 8, AND 15 OF LIFE, Tumor Site: Type of Lesion: LUNG: ADENOMA, MALIGNANT LYMPHOMA) was “active; positive”.

`Oc1ccccc1-c1ccccc1` was tested, and the carcinogen call (Species: GUINEA PIG, Strain/Sex: HARTLEY/MALE, Route: ORAL, Dose: 0, 2% IN DIET (STUDY DURATION: 48 WK)) was “inactive; negative”, the carcinogen call (Species: HAMSTER, Strain/Sex: SYRIAN/MALE, Route: ORAL, Dose: 0, 2% IN DIET (STUDY DURATION: 48 WK)) was “inactive; negative” and the carcinogen call (Species: MOUSE, Strain/Sex: B6C3F1/FEMALE, Route: ORAL, Dose: 0, 0.5, 1, 2% IN DIET FOR 96 WK (STUDY DURATION: 104 WK), Dose: 0, 0.5, 1, 2% IN DIET FOR 96 WK (STUDY DURATION: 104 WK)) was “inactive; negative”. The carcinogen call (Species: MOUSE, Strain/Sex: B6C3F1/FEMALE, Route: ORAL, Dose: 0, 0.5, 1, 2% IN THE DIET FOR 96 WK (STUDY DURATION: 104 WK), Dose: 0, 0.5, 1, 2% IN THE DIET FOR 96 WK (STUDY DURATION: 104 WK)) was “inactive; negative”, the carcinogen call (Species: MOUSE, Strain/Sex: B6C3F1/MALE, Route: ORAL, Dose: 0, 0.5, 1, 2% IN DIET FOR 96 WK (STUDY DURATION: 104 WK), Dose: 0, 0.5, 1, 2% IN DIET FOR 96 WK (STUDY DURATION: 104 WK)) was “inactive; negative” and the carcinogen call (Species: MOUSE, Strain/Sex: B6C3F1/MALE, Route: ORAL, Dose: 0, 0.5, 1, 2% IN THE DIET FOR 96 WK (STUDY DURATION: 104 WK), Dose: 0, 0.5, 1, 2% IN THE DIET FOR 96 WK (STUDY DURATION: 104 WK)) was “inactive; negative”. The carcinogen call (Species: MOUSE, Strain/Sex: B6C3F1/MALE, Route: ORAL, Dose: 0, 2% IN DIET (STUDY DURATION: 48 WK)) was “inactive; negative”, the carcinogen call (Species: MOUSE, Strain/Sex: CD-1/FEMALE, Route: DERMAL, Dose: 0, 55.5 MG/ANIMAL IN 0.1 ML ACETONE 3 D/WK FOR 102 WK) was “inactive; negative” and the carcinogen call (Species: MOUSE, Strain/Sex: CD-1/MALE, Route: DERMAL, Dose: 0, 55.5 MG/ANIMAL IN 0.1 ML ACETONE 3 D/WK FOR 102 WK) was “inactive; negative”. For the same compound, the carcinogen call (Species: RAT, Strain/Sex: F344/MALE, Route: ORAL, Dose: 0, 0.125, 0.25, 0.5, 1.0, 2.0, 4.0% IN DIET FOR 91 WK, Dose: 0, 0.125, 0.25, 0.5, 1.0, 2.0, 4.0% IN DIET FOR 91 WK, Tumor Site: Type of Lesion: KIDNEY: TRANSITIONAL CELL CARCINOMA, URINARY BLADDER: TRANSITIONAL CELL CARCINOMA) was “active; positive”, the carcinogen call (Species: RAT, Strain/Sex: F344/MALE, Route: ORAL, Dose: 0, 0.625, 1.25, 2.5% IN PELLET DIET FOR STUDY DURATION (STUDY DURATION: 91 WK), Dose: 0, 0.625, 1.25, 2.5% IN PELLET DIET FOR STUDY DURATION (STUDY DURATION: 91 WK), Tumor Site: Type of Lesion: BLADDER: TRANSITIONAL CELL PAPILLOMA, TRANSITIONAL CELL CARCINOMA) was “active; positive” and the carcinogen call (Species: RAT, Strain/Sex: F344/MALE, Route: ORAL, Dose: 0, 2% IN DIET (STUDY DURATION: 48 WK)) was “inactive; negative”. For the same compound, the carcinogen call (Species: RAT, Strain/Sex: F344/MALE, Route: ORAL, Dose: 0, 2% IN DIET FOR 104 WK (STUDY DURATION: 104 WK), Tumor Site: Type of Lesion: BLADDER: CARCINOMA) was “active; positive”.

With `Cc1ccccc1N=O` the carcinogen call (Species: RAT, Strain/Sex: F344/MALE, Route: ORAL, Dose: 3.38 G/KG- DIET FOR 72 WK (TOTAL DOSE 0.21 MOL/RAT), Tumor Site: Type of Lesion: LIVER: HEPATOMA, URINARY BLADDER: PAPILLOMA, PERITONEAL CAVITY: MESOTHELIOMA, SARCOMA, SPLEEN: FIBROMA, INTEGUMENTARY SY, Tumor Site: Type of Lesion: LIVER: HEPATOMA, URINARY BLADDER: PAPILLOMA, PERITONEAL CAVITY: MESOTHELIOMA, SARCOMA, SPLEEN: FIBROMA, INTEGUMENTARY SY) was “active; positive”.

`O=C([O-])CNCCNCC(=O)[O-].O=C([O-])CNCCNCC(=O)[O-].O=C([O-])CNCCNCC(=O)[O-].[Fe+3].[Fe+3]` was tested, and the carcinogen call (Species: RAT, Strain/Sex: WISTAR/MALE, Route: INTRAPERITONEAL, Dose: 0, 10 MG/KG BW 2/WK FOR 3 MO (STUDY DURATION: 1 YR), Tumor Site: Type of Lesion: KIDNEY: TUMOR) was “active; positive”.

Reference: PubChem BioAssay AID1259411 (Chemical Carcinogenesis Research Information System (CCRIS), 2018)
